US6541483B2, “Acridone-derived compounds useful as antineoplastic and antiretroviral agents” (The United States of America as represented by the …, priority 1996, dated 2003)
Read-outs that look alike come from different tables or passages of the source.

Legend:
HIV-1 integrase = HIV-1 integrase (Human immunodeficiency virus type 1 group M subtype B, UniProt P04585); test: in vitro integration and disintegration with full length purified integrase; assay type: biochemical; set-up: utilized the full length purified HIV-1 integrase; details: full length purified HIV-1 integrase
HIV-1 [1] = test: XTT cytoprotection assay in HIV-1 infected peripheral blood lymphocytes; assay type: cell-based; details: for cytoprotective activity: HIV-1 infected lymphocytes versus uninfected cells; for therapeutic index: lymphocyte cytoprotection assay
Excerpt: These compounds and several others were then examined in a cytoprotection assay involving peripheral blood lymphocytes which had been infected with HIV-1.
(§1) Briefly, the infected cells in culture are killed by the virus, and the cytotoxicity is detected by the formation of color due to the […] of a formazan dye (XTT) by enzymes released by the dying cells (Weislow et al., J. Natl. Cancer Inst. 81:577-586, 1989). An effective antiviral drug is able to protect the infected cells from cytotoxicity by inhibiting some vital function of the virus. […] FIGS. 4 and 5 show the cytoprotective activity of WMC26 and WMC42. Since many drugs can also be toxic to cells in their own right, a parallel experiment is carried out wherein uninfected cells are treated with the drugs until a concentration is reached where the cells are killed by the action of the drug.

[2] = biological target: HIV-1 reverse transcriptase (Human immunodeficiency virus type 1 group M subtype B, UniProt P04585); test: reverse transcriptase enzyme activity; assay type: biochemical
Excerpt: (§2) Based on the findings thus far our efforts have focused on biological assays of the temacrazine congener.

[3] = tested on: prostate cancer cell line PRXF (PX2M/27), PC3M; test: clonogenic assay, prostate cancer line PC3M; assay type: cell-based, human
Method: (§3) The activity of compound (4) was tested against several tumor xenografts in vitro. The experiments was carried out on cell lines derived from these tumors, utilizing a standard clonogenic assay protocol.

[4] = tested on: renal carcinoma RXF (1220/5); test: clonogenic assay, renal carcinoma line; assay type: cell-based, human
Method: as §3

melanoma MEXF (514/12) = test: clonogenic assay, melanoma line; assay type: cell-based, human
Method: as §3

[5] = tested on: mammary tumor MACL (MCF7X/13); test: clonogenic assay, mammary tumor line; assay type: cell-based, human
Method: as §3

[6] = tested on: gastric carcinoma GFX (251/14); test: clonogenic assay, gastric carcinoma line; assay type: cell-based, human
Method: as §3

[7] = tested on: prostate cancer cell line PRXF (DU145X/2); test: clonogenic assay, prostate cancer line DU145X; assay type: cell-based, human
Method: as §3

[8] = tested on: cell lines derived from tumor xenografts; test: clonogenic assay, mean over all tumor xenograft lines; assay type: cell-based, human; details: all of the lines tested
Method: as §3

HIV-1ADA = test: anti-HIV-1 activity in monocyte/macrophage cultures; assay type: cell-based; details: Human immunodeficiency virus 1, read-out: Mo/Mφ EC50
Method: (§4) The antiviral properties of the WMC series of compounds were evaluated. First, all compounds were tested for their ability to inhibit HIV-1 replication in cell culture using the XTT cytoprotection assay. This assay measures the concentration-dependent capacity of compounds to protect CEM-SS cells from the cytopathic effects of HIV-1. […] Thus, temacrazine was the most efficacious compound in the XTT cytoprotection assay. This conclusion was also reached when the compounds were tested for anti-HIV-1 activity against HIV-1ADA in human monocyte/macrophage cultures (Table 1).

HIV-1 [9] = test: XTT cytoprotection assay in CEM-SS cells (antiviral EC50); assay type: cell-based; details: for XTT Assay EC50: Table 1; for cytoprotective activity: HIV-1-infected CEM SS leukemia cells
Excerpt: as §1
(§5) As a result of these preliminary data, additional experiments were carried out to establish the antiviral activity in other cell lines, using a variety of protocols. The preliminary experiments in lymphocytes were confirmed using infected macrophages. Much more extensive experiments were carried out in HIV-1-infected CEM SS leukemia cells. […] However, two derivatives were found which had low antileukemic activity while maintaining high antiviral activity. […] This gives a therapeutic index of more than 3 orders of magnitude. The corresponding therapeutic index for WMC50 is about 100-200, which is quite acceptable. Additional experiments were carried out on WMC-70. […] Further, WMC-70 appears to affect post-transcription events in the virus. […] While the inhibition of integration appears to be the principal mechanism by which this compound exerts its antiviral activity, there are perhaps other mechanisms which are also involved in the therapeutic action of this drug, and by extension, of other antiviral drugs of this class.
as §4

[10] = tested on: attachment of HIV-1RF to CEM-SS cells; test: attachment of virions to CEM-SS cells (cell-bound p24 ELISA); assay type: cell-based; details: Human immunodeficiency virus 1, CEM-SS, read-out: Attachment ID50
Excerpt: as §2

[11] = tested on: human monocyte/macrophage cultures; test: toxicity in monocyte/macrophage cultures; assay type: cell-based; details: Homo sapiens, read-out: Mo/Mφ IC50
Method: as §4

HIV-1RF = test: nude mouse hollow fiber model of HIV-1 replication; assay type: in vivo, nude mice; details: 40 mg/Kg q8h intraperitoneally
Excerpt: The novel mechanism of action of temacrazine and its broad range of activity against HIV-1 and its high therapeutic indexes led us to assess its in vivo and anti-viral properties in a nude mouse hollow fiber model of HIV-1 replication. Briefly, CEM-SS cells are infected with HIV-1RF and placed into hollow fibers and implanted intraperitoneal or subcutaneously into nude mice. […] Similarly, mice are being treated by oral and intravenous administration of temacrazine. Peritoneal washes and serum samples were collected and p24 expression determined by antigen capture. Intraperitoneal administration of temacrazine reduced the amount of detectable p24 in peritoneal washes by 5 to 10 fold independently of the dosage schedule. […] Thus, temacrazine reduces HIV-1 replication in vivo.

CEM-SS cells = test: XTT assay toxicity in CEM-SS cells (IC50); assay type: cell-based; details: Homo sapiens, CEM-SS
Excerpt: as §1, §5, §4

[12] = biological target: p7 nucleocapsid protein zinc fingers (Human immunodeficiency virus type 1 group M subtype B, UniProt P04591); test: p7NC zinc finger fluorescence assays (TSQ, Trp37); assay type: biochemical, HIV-1
Excerpt: as §2

leukemia = details: Cholody et al. 1995; cited from earlier work
[13] = tested on: HIV-1 LTR-directed chloramphenicol acetyltransferase (CAT) activity; test: LTR-directed CAT activity in BF-24 cells; assay type: cell-based; details: 24 h, temacrazine up to 5 μM
Excerpt: Initiation and regulation of HIV-1 transcription requires a complex series of interactions with cellular transcription factors, such as NFkB, SP-1 and AP-1, and the participation of cellular factors in the transcriptional complex. In addition, the post-integrative model used here requires TNFα stimulated U1 and ACH-2 cells, this model requires not only the participation of the NFkB transcriptional complex, and also components of the TNFα signaling pathway. In order to rule out that temacrazine was non-specifically effecting transcription or down-regulating replication by interfering with the TNFα signal pathway, LTR-directed chloramphenicol acetyltransferase (CAT) activity was measured in BF-24 cells. BF-24 cells are derived from the THP-1 monocytic cell line and carry a stably integrated CAT gene under the transcriptional control of the HIV-1 LTR (S. Schwartz, et al., Proc. Natl. Acad. Sci. USA 86:7200 (1989); B. K. Felber, et al., Science 239:184 (1988)). The LTR in this monocytic cell line is inducible by IL-6, PMA and TNFα, and produces enzymatically active chloramphenicol transferase (“CAT”). […]
CAT activity was determined using a fluorescent Bodipy conjugated chloramphenicol after 18 h of reaction with 50 μg of protein extract containing Acetyl CoA.

For `CN(CCCNc1ccc2ncn3c4ccccc4c(=O)c1c23)CCCNc1ccc2nnn3c4ccccc4c(=O)c1c23` [WMC42], which “inhibition of integration and disintegration steps” value (HIV-1 integrase) is on record?
The value was “inhibited both the integration and disintegration steps”.

And the cytoprotective activity (HIV-1 [1])?
Its cytoprotective activity is “able to protect the infected lymphocytes at concentrations far lower than those which resulted in drug induced killing”.

And the therapeutic index (HIV-1 [1])?
Its therapeutic index is “very good therapeutic indices”.

With `CC(C)OC(=O)c1cc(NC(=S)OC(C)C)ccc1Cl` [UC38, reference compound] as the molecule, how does the IC50 ([2]; rCdG Template/primer, control compound, read-out: I50 RT Enzyme Activity) read?
Its IC50 is 6 nM.

What does the source list for `O=c1c2ccccc2n2cnc3ccc(NCCCN4CCN(CCCNc5ccc6ncn7c8ccccc8c(=O)c5c67)CC4)c1c32` [Compound 4, 1,4-bis[3-[(6-oxo-6H-imidazo[4,5,1-de]-acridin-5-yl)amino]propyl]piperazine]?
IC70 ([3]; PC3M): less than 1 nanogram/mL; sensitivity to the drug ([3]; PRXF PX2M/27): very sensitive; sensitivity to the drug [4]: completely insensitive; sensitivity to the drug (melanoma MEXF (514/12)): completely insensitive; sensitivity to the drug [5]: over twice the median dose; sensitivity to the drug [6]: sensitive at the median dose; sensitivity to the drug [7]: very sensitive; mean IC70 (concentration resulting in 70% killing of the tumor cells) [8]: 2.3 µg/mL

With `CN(CCCNc1ccc2ncn3c4ccccc4c(=O)c1c23)CCCNc1ccc2nnn3c4ccccc4c(=O)c1c23` [Compound 682402] as the molecule, how does the EC50 (HIV-1ADA) read?
Its EC50 is 160 nM.

What about the “XTT Assay EC50” value (HIV-1 [9]; CEM-SS cells) of the same molecule?
The value was “Inactive”.

And the IC50 [2]?
The IC50 was greater than 100000 nM.

What about the IC50 [10] of the same molecule?
Its IC50 is greater than 100000 nM.

What about the IC50 [11] of the same molecule?
The IC50 was 10000 nM.

With `CN(CCCNc1ccc2ncn3c4ccccc4c(=O)c1c23)CCCNc1ccc2ncn3c4ccccc4c(=O)c1c23` [Compound 682401] as the molecule, how does the EC50 (HIV-1ADA) read?
Its EC50 is 50 nM.

And the “XTT Assay EC50” value (HIV-1 [9]; CEM-SS cells)?
Its value is “Inactive”.

What about the IC50 [2] of the same molecule?
The IC50 was greater than 100000 nM.

And the IC50 [10]?
The IC50 was greater than 100000 nM.

What about the IC50 [11] of the same molecule?
Its IC50 is 1000 nM.

With `Nc1ccn([C@H]2CC[C@@H](CO)O2)c(=O)n1` [ddC, reference compound] as the molecule, how does the “Peritoneal Wash p24, mean” value (HIV-1RF) read?
The value was 7 pg p24.

And the “Serum p24, mean” value (HIV-1RF)?
Its value is 87 pg p24.

Which EC50 (HIV-1ADA) does the source give for `O=c1c2ccccc2n2cnc3ccc(NCCCN4CCN(CCCNc5ccc6nnn7c8ccccc8c(=O)c5c67)CC4)c1c32` [Compound 682404] here?
The EC50 was 100 nM.

And the therapeutic index (HIV-1 [9]; CEM SS cells)?
The therapeutic index was 100-200.

And the cytoprotective activity (HIV-1 [9])?
Its cytoprotective activity is “cytoprotective at very low concentrations”.

And the EC50 (HIV-1 [9]; Human immunodeficiency virus 1, CEM-SS, read-out: XTT Assay EC50)?
The EC50 was 0.41 nM.

And the EC50 (HIV-1 [9]; Human immunodeficiency virus 1, CEM-SS cells, read-out: EC50 antiviral value, XTT cytoprotection assay)?
The EC50 was 0.41 nM.

And the IC50 [2]?
The IC50 was 35000 nM.

And the IC50 [10]?
The IC50 was greater than 100000 nM.

What about the IC50 [11] of the same molecule?
The IC50 was 10000 nM.

What about the IC50 (CEM-SS cells; read-out: IC50 toxicity value, XTT assay) of the same molecule?
The IC50 was 158 nM.

What about the IC50 (CEM-SS cells; read-out: XTT Assay IC50) of the same molecule?
The IC50 was 158 nM.

What does the source list for `O=S1(=O)C[C@H](O)[C@H](O)CS1` [NSC 624151]?
NCp7 TSQ (Increase in RFU/90 min) [12]: 17 (NSC 624151) RFU/90 min; NCp7 Trp37 (Decrease in RFU/10 min) [12]: 145 (NSC 624151) RFU/10 min

Which IC50 ([2]; rAdT Template/primer, control compound, read-out: I50 RT Enzyme Activity) does the source give for `Cc1cn([C@H]2C[C@H](N=[N+]=[N-])[C@@H](CO[P@](=O)(O)O[P@](=O)(O)OP(=O)(O)O)O2)c(=O)[nH]c1=O` [Compound A2TTP, reference compound] here?
Its IC50 is 27 nM.

What does the source list for `CN(CCCNc1ccc2ncn3c4ccccc4c(=O)c1c23)CCCNc1ccc2ncn3c4ccccc4c(=O)c1c23` [WMC26]?
cytotoxicity to leukemia (leukemia): very potently (nanomolar levels) cytotoxic; inhibition of integration and disintegration steps (HIV-1 integrase): inhibited both the integration and disintegration steps; cytoprotective activity (HIV-1 [9]): could not be shown to be cytoprotective; cytoprotective activity (HIV-1 [1]): able to protect the infected lymphocytes at concentrations far lower than those which resulted in drug induced killing; therapeutic index (HIV-1 [1]): very good therapeutic indices

For `CN(CCCNc1ccc2nnn3c4ccccc4c(=O)c1c23)CCCNc1ccc2nnn3c4ccccc4c(=O)c1c23` [Compound 682403], which “XTT Assay EC50” value (HIV-1 [9]; CEM-SS cells) is on record?
Its value is “Inactive”.

For `Cc1cn([C@H]2C[C@H](N=[N+]=[N-])[C@@H](CO)O2)c(=O)[nH]c1=O` [AZT, reference compound], which “CAT induction by TNFα” value [13] is on record?
Its value is “inactive”.
